Test results reported in paper PMC11684019, “Unveiling the Antimycobacterial Potential of Novel 4-Alkoxyquinolines: Insights into Selectivity, Mechanism of Action, and In Vivo Exposure” (Journal of Medicinal Chemistry, 2024).
Converted amounts (≈) assume the structure as drawn. “And” between values parts separate entries of the source, which are not always exact repeats. Equal values may be shown once. Read-outs that look alike come from different tables or passages of the source. Marks after values point to notes of the source that are not given here.

Experiments:
[1] = test system: M. tuberculosis strain PT12 (MDR clinical isolate); type: cell-based, Mycobacterium tuberculosis
Vero cells [2] = conditions: read-out: CC50 Vero; Neutral Red method, 72 h
Vero cells [3] = conditions: read-out: CC50 Vero; MTT method, 72 h
[4] = test system: M. tuberculosis strain PT2 (MDR clinical isolate); type: cell-based, Mycobacterium tuberculosis
HepG2 cells [5] = conditions: read-out: CC50 HepG2; Neutral Red method, 72 h
HepG2 cells [6] = conditions: read-out: CC50 HepG2; MTT method, 72 h
[7] = test system: M. tuberculosis H37Rv strain; experiment: microbe, parasite or virus in culture; type: cell-based, Mycobacterium tuberculosis; conditions: M. tuberculosis H37Rv, resazurin-based assay
[8] = test system: M. tuberculosis strain PT20 (MDR clinical isolate); type: cell-based, Mycobacterium tuberculosis
[9] = Aqueous solubility (UHPLC-DAD); conditions: 25 °C, 4 h; for Solubility pH 1.2: 0.1 M HCl solution; for Solubility pH 9.1: 0.1 M NH4HCO3 solution; for Solubility pH 7.4: PBS
[10] = 24 h, 10 μM
Protocol: The assessment of chemical stability at different pH levels provides insights into the quantity or concentration of the test compound that remains unchanged and, consequently, available for absorption. […] Following this incubation period, the test compounds were quantified using HPLC-MS/MS, with alprenolol serving as the analytical control. This experiment was conducted by CEMSA (São Paulo, SP, Brazil).

[11] = rat liver microsomes, 2 μM, NADPH, 37 °C
[12] = 10 μM, pH 7.4, 5 h, 25 °C
[13] = mice; for Plasma concentration: 300 mg/kg single dose gavage
[14] = test system: M. tuberculosis H37Rv strain in murine macrophage RAW 264.7 cells; type: cell-based, Mycobacterium tuberculosis; conditions: for Reduction of Mtb load compared to the untreated group: 5 days
[15] = test system: Klebsiella pneumoniae multidrug-resistant clinical isolate; type: cell-based; conditions: tested at 20 μM, 24 h
[16] = test system: Staphylococcus aureus ATCC 25923; type: cell-based; conditions: ATCC 25923, tested at 20 μM, 24 h
[17] = test system: Escherichia coli ATCC 25922; type: cell-based; conditions: ATCC 25922, tested at 20 μM, 24 h
[18] = test system: Acinetobacter baumannii multidrug-resistant clinical isolate; type: cell-based; conditions: tested at 20 μM, 24 h
in vitro = conditions: PAMPA, pH 7.4
Mtb = conditions: cited from earlier work

4-Bromo-N-(3-((6-methoxy-2-methylquinolin-4-yl)oxy)propyl)aniline [8d]
MIC PT12 [1]: <0.05 µM | CC50 (Vero cells [2]): 12.8 µM | CC50 (Vero cells [3]): > 20 µM | MIC PT2 [4]: <0.05 µM | CC50 (HepG2 cells [5]): 16.8 µM | CC50 (HepG2 cells [6]): 15.3 µM | MIC [7]: 0.10 µM | MIC PT20 [8]: <0.05 µM

4-Ethyl-N-(3-((6-methoxy-2-methylquinolin-4-yl)oxy)propyl)aniline [8i]
MIC PT12 [1]: <0.06 µM | CC50 (Vero cells [2]): 4.2 µM | CC50 (Vero cells [3]): < 1 µM | MIC PT2 [4]: <0.06 µM | CC50 (HepG2 cells [5]): 8.1 µM | CC50 (HepG2 cells [6]): 0.3 µM | MIC [7]: 0.06 µM | MIC PT20 [8]: <0.06 µM

4-Iodo-N-(3-((6-methoxy-2-methylquinolin-4-yl)oxy)propyl)aniline [8e]
MIC PT12 [1]: <0.05 µM | CC50 (Vero cells [2]): 7.5 µM | CC50 (Vero cells [3]): 8.2 µM | MIC PT2 [4]: <0.05 µM | CC50 (HepG2 cells [5]): 12.8 µM | CC50 (HepG2 cells [6]): 10.6 µM | MIC [7]: 0.09 µM | MIC PT20 [8]: <0.05 µM

Cc1cc(OCCCNc2ccc(Cl)cc2)c2cc(Br)ccc2n1 [8r, N-(3-((6-bromo-2-methylquinolin-4-yl)oxy)propyl)-4-chloroaniline]
MIC PT12 [1]: <0.05 µM | Solubility pH 1.2 [9]: >2,470 μM | Solubility pH 9.1 [9]: 57.18 μM | Solubility pH 7.4 [9]: 15.0 μM | CC50 (Vero cells [2]): 11.2 µM | CC50 (Vero cells [3]): 19.8 µM | MIC PT2 [4]: <0.05 µM | CC50 (HepG2 cells [5]): > 20 µM | CC50 (HepG2 cells [6]): > 20 µM | MIC [7]: 0.10 µM (≈ 0.0406 µg/mL) | MIC PT20 [8]: <0.05 µM

CCc1ccc(NCCCOc2cc(C)nc3ccc(Br)cc23)cc1 [8t, N-(3-((6-bromo-2-methylquinolin-4-yl)oxy)propyl)-4-ethylaniline]
Chemical Stability pH 1.2 (percentage of remaining compound) ([10]; 0.1 M HCl, 37 °C): Chemical Stability ^b pH 1.2 ^c = 100% | Chemical Stability pH 9.1 (percentage of remaining compound) ([10]; 0.1 M NH4HCO3, 37 °C): Chemical Stability ^b pH 9.1 ^e = 6.0% | Chemical Stability pH 7.4 (percentage of remaining compound) ([10]; PBS, 37 °C): Chemical Stability ^b pH 7.4 ^d = 5.3% | MIC PT12 [1]: <0.05 µM | Solubility pH 1.2 [9]: >2,500 μM | Solubility pH 9.1 [9]: 30.22 μM | Solubility pH 7.4 [9]: 35.3 μM | CC50 (Vero cells [2]): 11.8 µM | CC50 (Vero cells [3]): > 20 µM | MIC PT2 [4]: <0.05 µM | CC50 (HepG2 cells [5]): > 20 µM | Clint (intrinsic clearance) [11]: Clint ^f = 58 mL/min/kg | t1/2 (half-life) [11]: t1/2 ^g = 7.0 min | PAMPA permeability [12]: PAMPA = 0.2 × 10^−6 cm/s | CC50 (HepG2 cells [6]): > 20 µM | MIC [7]: 0.05 µM (≈ 0.02 µg/mL) | Ke (elimination rate constant) ([13]; 300 mg/kg gavage): 0.16 h^–1 | Plasma concentrations for a span of up to 8 h ([13]; 300 mg/kg gavage): exceeding 7.49 μM | Tmax ([13]; 300 mg/kg gavage): 1 h | t1/2 (elimination half-life) ([13]; 300 mg/kg gavage): 4.3 ± 1.2 h | Cmax ([13]; 300 mg/kg gavage, noncompartmental analysis): 32.1 ± 3.9 µM | AUC0-t ([13]; 300 mg/kg gavage, time 0 to 8 h): 127.5 ± 5.7 µM·h | Plasma concentration ([13]; 0.5 h): 11.10 ± 1.24 µM | Plasma concentration ([13]; 0.75 h): 15.73 ± 1.61 µM | Plasma concentration ([13]; 1 h): 32.15 ± 3.94 µM | Plasma concentration ([13]; 4 h): 13.45 ± 2.01 µM | Plasma concentration ([13]; 8 h, 300 mg/kg): 9.80 µM and 9.80 ± 2.13 µM | Kind of effect on intracellular growth of M. tuberculosis H37Rv [14]: bacteriostatic effect | Log10 CFU/well (Mean ± SD) [14]: 3.90 ± 0.30 ^d Log10 CFU/well and 4.10 ± 0.02 ^d Log10 CFU/well | Reduction of Mtb load compared to the untreated group ([14]; 1 μM): 1.27 log10 CFU | Reduction of Mtb load compared to the untreated group ([14]; 5 μM): 1.07 log10 CFU | MIC PT20 [8]: <0.05 µM | MIC K. pneumoniae [15]: MIC K. pneumoniae = > 20 μM | MIC S. aureus [16]: MIC S. aureus = > 20 μM | MIC E. coli [17]: MIC E. coli = > 20 μM | MIC A. baumannii [18]: MIC A. baumannii = > 20 μM

C=CCc1ccccc1OCC(O)CNC(C)C (centres unmarked) [alprenolol]
Papp at 5 h, 10 µM (in vitro): 4.1 ×10⁻⁶ cm/s

COc1ccc2nc(C)cc(OCC(=O)Nc3ccccc3OC)c2c1 [compound 1]
MIC (Mtb) (Mtb): 0.44 µM (≈ 0.155 µg/mL)

COc1ccc2nc(C)cc(OCC(=O)Nc3ccc4ccccc4c3)c2c1 [compound 2]
MIC (Mtb) (Mtb): 0.05 µM (≈ 0.0186 µg/mL)

CCCc1ccc(NC(=O)COc2cc(C)nc3ccc(OC)cc23)cc1 [compound 3]
MIC (Mtb) (Mtb): 0.05 µM (≈ 0.0182 µg/mL)

COc1ccc2nc(C)cc(OCc3ccc(Cl)c(Cl)c3)c2c1 [compound 4]
MIC (Mtb) (Mtb): 0.3 µM (≈ 0.104 µg/mL)

COc1ccc2nc(C)cc(OCC(=O)c3cccc(Cl)c3)c2c1 [compound 5]
MIC (Mtb) (Mtb): 1.8 µM (≈ 0.615 µg/mL)

N-(3-((6-Chloro-2-methylquinolin-4-yl)oxy)propyl)-4-ethylaniline [8n]
MIC PT12 [1]: <0.06 µM | Solubility pH 1.2 [9]: 200 μM | Solubility pH 9.1 [9]: 0.37 μM | Solubility pH 7.4 [9]: 0.06 μM | MIC PT2 [4]: <0.06 µM | MIC [7]: 0.03 µM | MIC PT20 [8]: <0.06 µM

N-(3-((6-bromo-2-ethylquinolin-4-yl)oxy)propyl)-4-ethylaniline [8w]
MIC PT12 [1]: <0.05 µM | CC50 (Vero cells [2]): 9.1 µM | CC50 (Vero cells [3]): > 20 µM | MIC PT2 [4]: <0.05 µM | CC50 (HepG2 cells [5]): 8.3 µM | CC50 (HepG2 cells [6]): > 20 µM | MIC [7]: 0.10 µM | MIC PT20 [8]: <0.05 µM
